Measured values as given in patent publication US4001207A, “Tertiary-aliphatic amidazo compounds” (priority 1971, dated 1977).

Columns and labels:
[1] = Temperature of nitrogen/gas evolution, thermal stability; conditions: for temperature at which it begins to evolve nitrogen: begins to evolve nitrogen (slowly); for temperature at which it evolves nitrogen: evolves nitrogen at / above
[2] = cited from earlier work
[3] = background statement; cited from earlier work
[4] = Solubility in petroleum hydrocarbon and common organic solvents; type: physicochemical
[5] = Gas produced per gram on thermal decomposition; type: physicochemical; conditions: 110° C.
Method: (§1) It produces 179 cc. of gas per gram at 110° C. The following half-life data have been determined:
(§2) To a rapidly stirred mixture of 39.0 g. (0.2 m.) 1 -tert.-butylhydrazo-1-cyanocyclohexane, 200 ml. methylene chloride and 100 ml. water was added 14.3 g. […] The reaction was stirred an additional 15 mins. after the addition was complete. The methylene chloride layer was separated, washed twice with 50 ml. portions of saturated NaHCO3 solution, dried over anhydrous sodium sulfate, filtered and the methylene chloride evaporated on a rotating evaporator to obtain 35.0 g. of liquid product that assayed 86.5% by an ultra violet spectrophotometric analysis. Distillation gave a product, b.p. 71° C./1.2 mm. of Hg that assayed 97.6% as 1-tert.-butylazo- 1-cyanocyclohexane. The infrared spectrum was in accord with this structure. […] It produces 146 cc. of gas per gram at 130° C.

[6] = Half-life of thermal decomposition; type: physicochemical
Method: as §1
as §2, with “130° C. The following half-life data have been determined:” for “130° C.”
The following half-life data have been determined by gas evolution technique using trichlorobenzene as the solvent: […]

[7] = Preliminary toxicological studies
Description: The new compositions of the present invention eliminate these problems. Most of the new compositions are liquids and are soluble in petroleum hydrocarbon and most of the other common organic solvents. Thus, no dusting, metering, incorporating, mixing, and dispersing problems are encountered in using these new compositions. […] The less toxic nature of the new compositions coupled with their liquid and high solubility properties allows them to be used in many applications where IXA cannot be used.

CC(C)(C)NNC1(C#N)CCCCC1 [1-tert.-butylhydrazo-1-cyanocyclohexane]
stability on exposure to air ([1]; over extended periods): evolves HCN on exposure to air over extended periods

CC(C)(C#N)N=NC(C)(C)C#N [2,2'-azobisisobutyronitrile]
solubility in most of the organic common solvents ([2]; aromatic hydrocarbons, dioxane, alcohol, ether, carbon tetrachloride): very low or limited solubility
solubility in petroleum hydrocarbon solvents [2]: insoluble
toxicity [3]: toxic solid

CC(C)(C)N=NC(C)(C)C#N [Example I, Alpha-(tert.-butylazo) isobutyronitrile]
solubility in petroleum solvents [4]: soluble in petroleum solvents
gas produced [5]: 179 cc. of gas per gram
t 1/2 ([6]; 78.8° C.): 10.0 h
t 1/2 ([6]; 90° C.): 2.0 h
t 1/2 ([6]; 100° C.): 0.54 h
t 1/2 ([6]; 110° C.): 0.20 h
toxicity relative to IXA and its decomposition residue [7]: significantly less toxic

CC(C)CC(C#N)(CC(C)C)N=NC(C)(C)C [Example VII, 4-tert.-butylazo-4-cyano-2,6-dimethylheptane]
temperature at which it begins to evolve nitrogen [1]: 70 °C

CC(C)(C)N=NC(C)(C#N)CCC(=O)O (stereo not drawn) [Example X, alpha-tert.-butylazo-alpha-methyl-gamma-carboxybutyronitrile]
temperature at which it begins to evolve nitrogen [1]: 85 °C
half-life ([6]; 75° C.): 11.0 h
half-life ([6]; 85° C.): 3.15 h

CC(C)(C#N)N=NC(C)(C)c1ccccc1 [Example XI, Alpha-(tert.-cumylazo)isobutyronitrile]
temperature at which it begins to evolve nitrogen [1]: 55 °C

CC(C)(C)N=NC(C)(C#N)C1CC1 (stereo not drawn) [Example XII, Alpha-tert-butylazo-alpha-cyclopropylpropionitrile]
temperature at which it begins to evolve nitrogen [1]: 75 °C

CC(C)(C)N=NC(N)=O [Example XIII, tert.-butylazoformamide]
t 1/2 ([6]; 120° C., gas evolution technique, trichlorobenzene): 3.00 h
t 1/2 ([6]; 130° C., gas evolution technique, trichlorobenzene): 0.87 h
t 1/2 ([6]; 150° C., gas evolution technique, trichlorobenzene): 0.14 h

CC(C)(C)N=NC(=O)C(C)(C)C [Example XIX, Pivaloyl tert.-butyldiimide]
temperature at which it evolves nitrogen [1]: 35 °C

CC(C)(C)N=NC(=O)c1ccccc1 [Example XX, Benzoyl tert.-butyldiimide]
temperature at which it evolves nitrogen [1]: 25 °C

CC(C)(C)N=NC1(C#N)CCCCC1 [IV, 1-tert.-butylazo-1-cyanocyclohexane]
toxicity relative to IXA and its decomposition residue [7]: significantly less toxic

CC(C)(C)N=NC(C)(C#N)C(C)(C)C (stereo not drawn) [IX, 2-tert.-butylazo-2-cyano-3,3-dimethylbutane]
temperature at which it begins to evolve nitrogen [1]: 95 °C

CC(C)OC(=O)N=NC(C)(C)c1ccccc1 [Isopropyl tert.-cumylazocarboxylate]
temperature at which it evolves nitrogen [1]: 80 °C

CC(C)CC(C)(N=NC(C)(C)C)OOC(C)(CC(C)C)N=NC(C)(C)C (stereo not drawn) [LVIII, Di[1-(t-butylazo)-1,3-dimethylbutyl] Peroxide]
thermal stability / gas evolution, in words [1]: began to gas rapidly upon reaching room temperature

CC(C)CC(C)(N=NC(C)(C)C)OOC(C)(C)CCC(C)(C)OOC(C)(CC(C)C)N=NC(C)(C)C (stereo not drawn) [LXV, 2,2,5,8,8,11,11,14,17,17,decamethyl-5,14-diisobutyl-Δ^3,15-3,4,15,16-tetraaza-6,7,12,13-tetraoxaoctadecadiene]
temperature at which it evolves nitrogen [1]: 30 °C

CC1CC(C)(C)CC(C#N)(N=NC(C)(C)C)C1 (stereo not drawn) [VIII, 1-tert.-butylazo-1-cyano-3,3,5-trimethylcyclohexane]
temperature at which it begins to evolve nitrogen [1]: 100 °C

COC(=O)CNC(=O)N=NC(C)(C)C [XVI, tert.-butylazo-N-carbmethoxymethylformamide]
temperature at which it begins to evolve nitrogen [1]: 140 °C

CC(C)(C)N=NC(=O)NCC(=O)O [XVII, tert.-butylazo-N-carboxymethylformamide]
temperature at which it begins to evolve nitrogen [1]: 60 °C

CC(C)(C)N=NC1=CCCCC1 [XXIII, 1(-tert.-butylazo)cyclohexene]
temperature at which it evolves nitrogen [1]: 60 °C

CC(C)(C)N=NC1(C(N)=O)CCCCC1 [XXIV, 1-tert. butylazo-1-carbamylcyclohexane]
temperature at which it evolves nitrogen [1]: above 120 °C

CC(C)(C)N=NC(C)(C)C(N)=O [XXV, 2-t-butylazo-2-carbamylpropane]
temperature at which it evolves nitrogen [1]: above 120 °C
